Laboratory results taken from US8476298B2 (Exelixis, Inc., priority 2003, dated 2013).
Read-outs that look alike come from different tables or passages of the source.

Key:
[1] = molecular target: c-Kit kinase (Homo sapiens, UniProt P10721); assay: c-Kit AlphaScreen kinase assay; type: biochemical;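 further: c-Kit kinase phosphorylating biotinylated poly(Glu,Tyr), ATP near its KM, 1 h reaction at ambient temperature, AlphaScreen chemiluminescence with streptavidin donor and anti-phosphotyrosine acceptor beads, 10-point inhibitor titration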
Chain of c-Kit kinase (P10721 26-976): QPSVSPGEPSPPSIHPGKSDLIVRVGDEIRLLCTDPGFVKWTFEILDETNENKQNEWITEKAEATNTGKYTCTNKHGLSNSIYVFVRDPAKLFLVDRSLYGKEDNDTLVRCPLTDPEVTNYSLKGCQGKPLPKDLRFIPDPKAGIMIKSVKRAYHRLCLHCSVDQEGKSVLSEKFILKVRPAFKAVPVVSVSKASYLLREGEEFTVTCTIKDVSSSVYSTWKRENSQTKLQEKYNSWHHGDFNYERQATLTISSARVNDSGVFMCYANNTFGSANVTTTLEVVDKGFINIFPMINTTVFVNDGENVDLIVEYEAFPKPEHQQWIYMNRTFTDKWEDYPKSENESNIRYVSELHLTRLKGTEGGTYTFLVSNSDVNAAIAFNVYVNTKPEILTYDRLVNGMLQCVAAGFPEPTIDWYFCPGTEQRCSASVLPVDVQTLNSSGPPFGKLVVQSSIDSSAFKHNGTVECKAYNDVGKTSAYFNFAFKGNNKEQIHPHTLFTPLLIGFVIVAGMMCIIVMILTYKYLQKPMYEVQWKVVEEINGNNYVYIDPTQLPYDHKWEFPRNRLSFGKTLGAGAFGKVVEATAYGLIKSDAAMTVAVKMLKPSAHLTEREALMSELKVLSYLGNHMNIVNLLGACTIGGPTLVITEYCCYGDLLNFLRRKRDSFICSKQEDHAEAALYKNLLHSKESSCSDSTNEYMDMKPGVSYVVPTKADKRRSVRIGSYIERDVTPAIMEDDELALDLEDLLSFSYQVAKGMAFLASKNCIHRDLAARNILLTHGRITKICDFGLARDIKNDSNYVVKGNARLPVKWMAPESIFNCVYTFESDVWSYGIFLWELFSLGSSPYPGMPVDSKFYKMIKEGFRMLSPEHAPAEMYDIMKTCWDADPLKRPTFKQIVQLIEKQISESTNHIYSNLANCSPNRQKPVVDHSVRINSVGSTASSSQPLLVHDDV
Protocol: Kinase activity and compound inhibition are investigated using one or more of the three assay formats described below. The ATP concentrations for each assay are selected to be close to the Michaelis-Menten constant (KM) for each individual kinase. Dose-response experiments are performed at 10 different inhibitor concentrations in a 384-well plate format.
AlphaScreen™ (Perkin Elmer) technology is a proximity assay employing microparticles. Singlet oxygen derived from a donor bead following laser excitation results in chemiluminescence when in proximity (100 Å) to an acceptor bead due to biomolecular interactions.
c-Kit biochemical activity was assessed using AlphaScreen™ (Perkin Elmer) technology, described above. Test compounds, ATP, biotinylated poly(Glu, Tyr) and c-Kit kinase were combined in a volume of 20 μL in a 384-well white, medium binding microtiter plate (Greiner). Reaction mixtures were incubated for 1 hr at ambient temperature. […] After 16 hr incubation at ambient temperature plates were read using an AlphaQuest reader (Perkin Elmer).

[2] = molecular target: T1, KDR (baculovirus expressed human KDR kinase domain D807-V1356) (Homo sapiens, UniProt P35968); assay: biochemical;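 further: Luciferase-coupled chemiluminescent kinase assay, activity read as percent ATP left after 4 h reaction at ambient temperature, ATP near KM, 10-point dose-response in 384-well plates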
T1 construct: human KDR kinase domain D807-V1356; host or cells: baculovirus expression
T1 sequence (P35968 807-1356): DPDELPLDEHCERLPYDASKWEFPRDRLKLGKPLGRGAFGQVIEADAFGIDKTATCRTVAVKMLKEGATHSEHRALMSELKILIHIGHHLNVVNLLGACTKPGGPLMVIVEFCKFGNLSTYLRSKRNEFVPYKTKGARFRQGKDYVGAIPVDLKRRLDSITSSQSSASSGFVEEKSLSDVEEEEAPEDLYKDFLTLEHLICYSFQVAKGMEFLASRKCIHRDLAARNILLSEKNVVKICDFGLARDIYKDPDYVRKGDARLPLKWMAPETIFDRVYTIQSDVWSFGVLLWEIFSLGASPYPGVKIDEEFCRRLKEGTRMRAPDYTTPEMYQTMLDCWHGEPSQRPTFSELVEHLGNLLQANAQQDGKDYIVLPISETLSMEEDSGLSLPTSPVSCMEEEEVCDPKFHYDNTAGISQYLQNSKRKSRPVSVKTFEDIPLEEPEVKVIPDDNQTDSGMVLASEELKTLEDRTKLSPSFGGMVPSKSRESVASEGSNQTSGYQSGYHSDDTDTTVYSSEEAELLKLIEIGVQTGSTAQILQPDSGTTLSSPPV

[3] = molecular target: T2, c-Met (baculovirus expressed human c-Met kinase domain P948-S1343) (Homo sapiens, UniProt P08581); assay: c-Met Luciferase-Coupled Chemiluminescent Kinase assay (LCCA); type: biochemical;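 further: kinase activity read as percent ATP left after reaction, by luciferase-luciferin chemiluminescence, with 1 µM ATP and 1 µM poly-EY substrate, 2 h at ambient temperature, 10-point dose-response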
T2 construct: human c-Met kinase domain P948-S1343; host or cells: baculovirus expression
T2 sequence (P08581 1011-1343 limits assumed): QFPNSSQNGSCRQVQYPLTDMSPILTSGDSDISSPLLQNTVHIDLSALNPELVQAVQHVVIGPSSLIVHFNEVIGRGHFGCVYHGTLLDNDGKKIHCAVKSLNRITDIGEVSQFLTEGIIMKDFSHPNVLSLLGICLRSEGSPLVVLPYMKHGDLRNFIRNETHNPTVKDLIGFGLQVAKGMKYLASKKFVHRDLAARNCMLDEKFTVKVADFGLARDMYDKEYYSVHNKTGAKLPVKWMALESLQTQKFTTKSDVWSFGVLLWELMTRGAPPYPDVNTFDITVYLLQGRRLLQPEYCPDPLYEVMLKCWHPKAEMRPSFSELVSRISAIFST

[4] = molecular target: T3, Flt-3 (baculovirus expressed human Flt-3 kinase domain R571-S993) (Homo sapiens, UniProt P36888); assay: biochemical; conditions: read-out: flt3 IC50;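 further: Luciferase-coupled chemiluminescent kinase assay, activity read as percent ATP left after a 3 h reaction at room temperature, ATP near KM, 10-point dose-response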
T3 construct: human Flt-3 kinase domain R571-S993; host or cells: baculovirus expression
T3 sequence (P36888 571-993): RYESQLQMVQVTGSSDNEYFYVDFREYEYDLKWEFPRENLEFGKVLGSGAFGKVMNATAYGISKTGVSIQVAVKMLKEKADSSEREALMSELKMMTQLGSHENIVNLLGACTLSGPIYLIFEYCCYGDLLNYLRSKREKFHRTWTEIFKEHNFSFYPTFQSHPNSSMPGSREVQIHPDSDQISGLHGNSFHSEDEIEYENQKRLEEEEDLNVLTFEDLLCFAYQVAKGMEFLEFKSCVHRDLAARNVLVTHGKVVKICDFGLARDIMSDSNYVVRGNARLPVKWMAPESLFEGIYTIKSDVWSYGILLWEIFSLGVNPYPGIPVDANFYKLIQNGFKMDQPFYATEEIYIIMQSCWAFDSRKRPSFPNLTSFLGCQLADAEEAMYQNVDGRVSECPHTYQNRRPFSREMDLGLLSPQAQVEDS

Compound	IC50 [1]	IC50 ([1]; Table 4, inhibition as IC50 class)	IC50 [2]	IC50 [3]	IC50 [4]
COc1cc2nccc(Oc3ccc(NC(=O)C(=O)NCc4ccccc4)cc3F)c2cc1OC [Entry 12]	50 to 500 nM	–	–	–	–
COc1cc2c(Oc3ccc(NC(=O)C(=O)NCCc4cccc(Cl)c4)cc3F)ccnc2cc1OCC1CCNCC1 [Example 149, N-[2-(3-Chloro-phenyl)-ethyl]-N′-{3-fluoro-4-[6-methoxy-7-{piperidin-4-ylmethoxy)-quinolin-4-yloxy]-phenyl}-oxalamide]	< 50 nM	–	–	–	–
CCOc1ccc(CCNC(=O)C(=O)Nc2ccc(Oc3ccnc4cc(OCC5CCNCC5)c(OC)cc34)c(F)c2)cc1 [Example 167, N-[2-(4-Ethoxy-phenyl)-ethyl]-N′-{3-fluoro-4-[6-methoxy-7-(piperidin-4-ylmethoxy)-quinolin-4-yloxy]-phenyl}-oxalamide]	–	50 to 500 nM	–	–	–
CCN(CC)CCCOc1cc2ncnc(Oc3ccc(NC(=O)C4(C(=O)Nc5ccc(F)cc5)CCC4)cc3F)c2cc1OC [Example 380, N-(4-{[7-{[3-(diethylamino)propyl]oxy}-6-(methyloxy)quinazolin-4-yl]oxy}-3-fluorophenyl)-N′-(4-fluorophenyl)cyclobutane-1,1-dicarboxamide]	–	–	< 50 nM	< 50 nM	50 to 500 nM
COc1cc2c(Oc3ccc(NC(=O)C4(C(=O)Nc5ccc(F)cc5)CCC4)cc3F)ncnc2cc1OCCCN1CCN(C)CC1 [Example 381, N-{3-fluoro-4-[(6-(methyloxy)-7-{[3-(4-methylpiperazin-1-yl)propyl]oxy}quinazolin-4-yl)oxy]phenyl}-N′-(4-fluorophenyl)cyclobutane-1,1-dicarboxamide]	–	–	< 50 nM	< 50 nM	50 to 500 nM
COc1cc2c(Oc3ccc(NC(=O)C4(C(=O)Nc5ccc(F)cc5)CCC4)cc3F)ncnc2cc1OCCCN1CCNCC1 [Example 382, N-[3-fluoro-4-({6-(methyloxy)-7-[(3-piperazin-1-ylpropyl)oxy]quinazolin-4-yl}oxy)phenyl]-N′-(4-fluorophenyl)cyclobutane-1,1-dicarboxamide]	–	–	< 50 nM	< 50 nM	50 to 500 nM
COc1cc2c(Oc3ccc(NC(=O)C4(C(=O)Nc5ccc(F)cc5)[C@H](C)[C@H]4C)cc3F)ncnc2cc1OCCCN1CCOCC1 (stereo partly drawn) [Example 383, (2R,3R)-N-[3-fluoro-4-({6-(methyloxy)-7-[(3-morpholin-4-ylpropyl)oxy]quinazolin-4-yl}oxy)phenyl]-N′-(4-fluorophenyl)-2,3-dimethylcyclopropane-1,1-dicarboxamide]	–	–	< 50 nM	< 50 nM	500 to 5000 nM
CCN(CC)CCCOc1cc2nccc(Oc3ccc(NC(=O)C4(C(=O)Nc5ccc(F)cc5)CCC4)cc3F)c2cc1OC [Example 384, N-(4-{[7-{[3-(diethylamino)propyl]oxy}-6-(methyloxy)quinolin-4-yl]oxy}-3-fluorophenyl)-N′-(4-fluorophenyl)cyclobutane-1,1-dicarboxamide]	–	–	< 50 nM	< 50 nM	500 to 5000 nM
COc1cc2c(Oc3ccc(NC(=O)C4(C(=O)Nc5ccc(F)cc5)CCC4)cc3F)ccnc2cc1OCCCN1CCN(C)CC1 [Example 385, N-{3-fluoro-4-[(6-(methyloxy)-7-{[3-(4-methylpiperazin-1-yl)propyl]oxy}quinolin-4-yl)oxy]phenyl}-N′-(4-fluorophenyl)cyclobutane-1,1-dicarboxamide]	–	–	< 50 nM	< 50 nM	500 to 5000 nM
CCN(CC)CCCOc1cc2ncnc(Oc3ccc(NC(=O)[C@]4(C(=O)Nc5ccc(F)cc5)C[C@H]4C)cc3F)c2cc1OC [Example 386, (1R,2R)-N-(4-{[7-{[3-(diethylamino)propyl]oxy}-6-(methyloxy)quinazolin-4-yl]oxy}-3-fluorophenyl)-N′-(4-fluorophenyl)-2-methylcyclopropane-1,1-dicarboxamide]	–	–	< 50 nM	< 50 nM	< 50 nM
COc1cc2c(Oc3ccc(NC(=O)[C@]4(C(=O)Nc5ccc(F)cc5)C[C@H]4C)cc3F)ncnc2cc1OCCCN1CCN(C)CC1 [Example 387, (1R,2R)-N-{3-fluoro-4-[(6-(methyloxy)-7-{[3-(4-methylpiperazin-1-yl)propyl]oxy}quinazolin-4-yl)oxy]phenyl}-N′-(4-fluorophenyl)-2-methylcyclopropane-1,1-dicarboxamide]	–	–	< 50 nM	< 50 nM	< 50 nM
CCN(CC)CCOc1cc2ncnc(Oc3ccc(NC(=O)C4(C(=O)Nc5ccc(F)cc5)[C@H](C)[C@H]4C)cc3F)c2cc1OC (stereo partly drawn) [Example 388, (2R,3R)-N-(4-{[7-{[2-(diethylamino)ethyl]oxy}-6-(methyloxy)quinazolin-4-yl]oxy}-3-fluorophenyl)-N′-(4-fluorophenyl)-2,3-dimethylcyclopropane-1,1-dicarboxamide]	–	–	< 50 nM	50 to 500 nM	500 to 5000 nM
CCN(CC)CCCOc1cc2ncnc(Oc3ccc(NC(=O)C4(C(=O)Nc5ccc(F)cc5)[C@H](C)[C@H]4C)cc3F)c2cc1OC (stereo partly drawn) [Example 389, (2R,3R)-N-(4-{[7-{[3-(diethylamino)propyl]oxy}-6-(methyloxy)quinazolin-4-yl]oxy}-3-fluorophenyl)-N′-(4-fluorophenyl)-2,3-dimethylcyclopropane-1,1-dicarboxamide]	–	–	< 50 nM	< 50 nM	50 to 500 nM
COc1cc2c(Oc3ccc(NC(=O)[C@]4(C(=O)Nc5ccc(F)cc5)C[C@H]4C)cc3F)ncnc2cc1OCCCN1CCNCC1 [Example 390, (1R,2R)-N-[3-fluoro-4-({6-(methyloxy)-7-[(3-piperazin-1-ylpropyl)oxy]quinazolin-4-yl}oxy)phenyl]-N′-(4-fluorophenyl)-2-methylcyclopropane-1,1-dicarboxamide]	–	–	< 50 nM	< 50 nM	< 50 nM
CCN(CC)CCOc1cc2nccc(Oc3ccc(NC(=O)C4(C(=O)Nc5ccc(F)cc5)[C@H](C)[C@H]4C)cc3F)c2cc1OC (stereo partly drawn) [Example 391, (2R,3R)-N-(4-{[7-{[2-(diethylamino)ethyl]oxy}-6-(methyloxy)quinolin-4-yl]oxy}-3-fluorophenyl)-N′-(4-fluorophenyl)-2,3-dimethylcyclopropane-1,1-dicarboxamide]	–	–	< 50 nM	< 50 nM	50 to 500 nM
COc1cc2nccc(Oc3ccc(NC(=O)C4(C(=O)NCc5ccc(F)cc5)CC4)cc3)c2cc1OC [Example 392, N-(4-{[6,7-bis(methyloxy)quinolin-4-yl]oxy}phenyl)-N′-[(4-fluorophenyl)methyl]cyclopropane-1,1-dicarboxamide]	–	–	50 to 500 nM	50 to 500 nM	< 50 nM
COc1cc2nccc(Oc3ccc(NC(=O)C4(C(=O)NCCN5CCOCC5)CC4)cc3)c2cc1OC [Example 393, N-(4-{[6,7-bis(methyloxy)quinolin-4-yl]oxy}phenyl)-N′-(2-morpholin-4-ylethyl)cyclopropane-1,1-dicarboxamide]	–	–	> 5000 nM	500 to 5000 nM	50 to 500 nM
COc1cc2nccc(Oc3ccc(NC(=O)C4(C(=O)Nc5ccccc5CN5CCCCC5)CC4)cc3)c2cc1OC [Example 394, N-(4-{[6,7-bis(methyloxy)quinolin-4-yl]oxy}phenyl)-N′-[2-(piperidin-1-ylmethyl)phenyl]cyclopropane-1,1-dicarboxamide]	–	–	> 5000 nM	50 to 500 nM	50 to 500 nM
COc1cc2nccc(Oc3ccc(NC(=O)C4(C(=O)Nc5ccccc5CN5CCCC5)CC4)cc3)c2cc1OC [Example 395, N-(4-{[6,7-bis(methyloxy)quinolin-4-yl]oxy}phenyl)-N′-[2-(pyrrolidin-1-ylmethyl)phenyl]cyclopropane-1,1-dicarboxamide]	–	–	500 to 5000 nM	50 to 500 nM	50 to 500 nM
COc1cc2nccc(Oc3ccc(NC(=O)C4(C(=O)Nc5cccc(CN6CCOCC6)c5)CC4)cc3)c2cc1OC [Example 396, N-(4-{[6,7-bis(methyloxy)quinolin-4-yl]oxy}phenyl)-N′-[3-(morpholin-4-ylmethyl)phenyl]cyclopropane-1,1-dicarboxamide]	–	–	< 50 nM	50 to 500 nM	< 50 nM
COc1cc2nccc(Oc3ccc(NC(=O)C4(C(=O)Nc5ccccc5CN5CCOCC5)CC4)cc3)c2cc1OC [Example 397, N-(4-{[6,7-bis(methyloxy)quinolin-4-yl]oxy}phenyl)-N′-[2-(morpholin-4-ylmethyl)phenyl]cyclopropane-1,1-dicarboxamide]	–	–	500 to 5000 nM	50 to 500 nM	50 to 500 nM
COc1cc2nccc(Oc3ccc(NC(=O)C4(C(=O)Nc5ccccc5)CC4)cc3)c2cc1OC [Example 398, N-(4-{[6,7-bis(methyloxy)quinolin-4-yl]oxy}phenyl)-N′-phenylcyclopropane-1,1-dicarboxamide]	–	–	< 50 nM	< 50 nM	< 50 nM
COc1cc2nccc(Oc3ccc(NC(=O)C4(C(=O)Nc5cccc(CN)c5)CC4)cc3)c2cc1OC [Example 399, N-[3-(aminomethyl)phenyl]-N′-(4-{[6,7-bis(methyloxy)quinolin-4-yl]oxy}phenyl)cyclopropane-1,1-dicarboxamide]	–	–	< 50 nM	50 to 500 nM	50 to 500 nM
